Reference: patent US12227500B2, “Substituted pyrrolo[2,3-b]pyridines for suppressing toxic endoplasmic reticulum stress” (THE TRUSTEES OF COLUMBIA UNIVERSITY IN THE CITY OF NEW YORK, priority 2018, dated 2025)
pEC50, pIC50: −log10 of the molar value. “And” between values parts separate entries of the source, which are not always exact repeats. Equal values may be shown once. Read-outs that look alike come from different tables or passages of the source.

Legend:
[1] = Plasma and brain concentration 30 min after IP injection; format: in vivo, mouse; conditions: male, C57BL6/J, mouse, mice, ip dosing, 30 minutes; for Kp at 30 min: brain/plasma, read-out: B/P
Procedure: All studies were performed on 6-week old male C57BL6/J mice that were housed in the Columbia University Medical Center facility in a 12h light/dark cycle with access to food and water ad libitum. All animal procedures were approved by the Columbia University IACUC. […] Animals were weighed and injected once intraperitoneally (IP) at the indicated dose (10 or 20 mg/kg). After 30 min, animals were deeply anesthetized with 2.5% Avertin. Whole blood was collected by cardiac puncture in tubes containing 0.5M EDTA as an anticoagulant, and centrifuged for 10 min at 845 rcf at 4° to isolate plasma. Following cardiac puncture, animals were decapitated and brains were dissected and weighed. Brain samples were homogenized with a glass dounce homogenizer in 5 volumes of ddH2O. Brain and plasma samples were snap frozen in liquid nitrogen and stored at −80° C. before further processing.
The plasma samples were transferred to Eppendorf tubes (50 μL per sample) and diluted with acetonitrile (200 μL). The samples were sonicated for 1 minute followed by centrifugation at 16,000 rpm for 10 minutes. The supernatant was transferred to another Eppendorf tube and the solvent evaporated overnight. The samples were reconstituted in a mixture of 40 μL acetonitrile and 10 μL water transferred to a sample vial with insert, and analyzed by LC-MS.
The homogenized brain samples (250 μL) were transferred to Eppendorf tubes and diluted with acetonitrile (750 μL). The samples were sonicated for 1 minute followed by centrifugation at 16,000 rpm for 10 minutes. The supernatant (900 μL) was transferred to another Eppendorf tube and the solvent evaporated overnight. The samples were reconstituted in a mixture of 80 μL acetonitrile and 20 μL water, transferred to a sample vial with insert, and analyzed by LC-MS.
LC-MS analysis was performed on a platform comprising a Thermo Scientific Dionex Ultimate 3000 and a Bruker amaZon SL equipped with an electrospray ionization source controlled by Bruker Hystar 3.2. The compound concentration in each plasma sample was determined using a calibration curve. Chromatographic separation was performed by injecting 10 μL of the sample onto an Agilent Eclipse Plus C18 column (2.1×50 mm, 3.5 μm) maintained at 20° C. The flow rate was maintained at 400 μL/min. The initial flow conditions were 60% solvent A (water containing 0.1% acetic acid) and 40% solvent B (methanol containing 0.1% acetic acid). Solvent B was raised to 60% over 0.25 minutes and to 70% by 6.75 minutes.

[2] = test system: human ES motor neurons carrying the ALS-causing SOD1^A4V mutation; test: cells; format: cell-based; conditions: Homo sapiens, Neuron, 72 h, CPA 33 μM, 72 h
Procedure: Next, survival assays were performed with all the analogs at once to generate a low-variability dataset. All compounds were evaluated at concentrations ranging from 0.1-3.0 μM (five-point dilution) in three technical replicates and two biological replicates.

phospho-cjun = test: Phospho-cjun in olfactory bulbs after treatment in vivo (western blot); design: species or system mouse; conditions: 10 mg/kg oral gavage
Procedure: Compounds at 10 mg/kg were delivered intraperitoneally (IP), orally, or sub-cutaneously (SC). Animals were sacrificed 1 h after treatment. Their olfactory bulbs were dissected and lysed for western blot analysis. Phospho-cjun expression was normalized to the housekeeping protein GAPDH.
We therefore selected phospho-cjun as a marker of target engagement for further in vivo studies. C-jun is highly expressed throughout the murine central nervous system, especially in the olfactory bulbs. […] Animals were then sacrificed after 1 h, and their olfactory bulbs were sub-dissected and lysed for further western blot analysis. Samples were probed with an antibody specific to phosphorylated c-jun (at serine 63; cell signaling) and normalized to the housekeeping gene GAPDH.

NUAK1 = NUAK1 (Homo sapiens, UniProt O60285); conditions: cited from earlier work
NUAK1, sequence (O60285 whole entry, species assumed): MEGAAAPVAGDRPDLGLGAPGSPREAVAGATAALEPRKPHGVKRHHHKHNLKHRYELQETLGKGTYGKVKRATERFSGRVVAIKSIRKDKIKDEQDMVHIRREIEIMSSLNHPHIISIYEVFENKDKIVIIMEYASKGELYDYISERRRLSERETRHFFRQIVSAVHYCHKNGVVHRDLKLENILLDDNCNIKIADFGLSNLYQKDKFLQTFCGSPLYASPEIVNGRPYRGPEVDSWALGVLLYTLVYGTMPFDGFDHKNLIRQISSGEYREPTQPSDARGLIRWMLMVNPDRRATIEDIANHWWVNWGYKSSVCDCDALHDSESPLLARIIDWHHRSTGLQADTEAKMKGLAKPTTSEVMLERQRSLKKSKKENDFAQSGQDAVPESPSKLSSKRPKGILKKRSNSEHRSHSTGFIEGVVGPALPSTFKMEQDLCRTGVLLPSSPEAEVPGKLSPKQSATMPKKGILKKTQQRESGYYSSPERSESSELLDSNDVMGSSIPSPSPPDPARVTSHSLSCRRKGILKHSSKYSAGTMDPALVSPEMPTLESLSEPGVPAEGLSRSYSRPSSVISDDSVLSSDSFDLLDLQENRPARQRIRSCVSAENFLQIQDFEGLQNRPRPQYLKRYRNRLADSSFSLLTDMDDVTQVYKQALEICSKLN

[3] = test system: human stem cell-derived motor neurons derived from a healthy patient; test: CPA survival assay, wild-type human stem cell-derived motor neurons; conditions: 8-point dilution series
[4] = test system: human stem cell-derived motor neurons derived from a healthy patient
human ES motor neurons = test: Rescue of CPA toxicity by kinase inhibitors in dilution series (FIG. 3); conditions: dilution series, FIG. 3
[5] = test system: HB9::GFP-SOD1^+/+ human motor neurons; test: Rescue of CPA toxicity in human ESC-derived motor neurons, SOD1^+/+; format: cell-based; conditions: WT motor neurons, 33 μM CPA
From the text: (§1) One advantage of the stem cell-derived motor neuron survival assay is that it can be easily extended to human motor neurons. To adapt the assay to human cells, we generated a new isogenic pair of ESC lines derived from a human ESC line expressing GFP under the control of the Hb9 motor neuron promoter (HUES3 HB9::GFP, (Di Giorgio et al. 2008)). […] . The pair of cell lines was differentiated into motor neurons in parallel using previously published protocols (Amoroso et al. 2013; […] .
(§2) Differentiation of human isogenic HUES3 ESC HB9::GFP reporter lines into motor neurons was performed as previously described (Maury et al. 2015). Cells were dissociated on day 16 of differentiation, FACS-sorted and plated on poly-ornithine- and laminin-coated surfaces as above. Serum-free human motor neuron plating media was supplemented with the antimitotic UFdU and the neurotrophic factors GDNF, BDNF, CNTF, and IGF1 (all at 10 ng/mL) as described (Johnson-Kerner et al. 2015).

[6] = Solubility of kenpaullone (observation); format: physicochemical
MLK3 = MLK3 (Homo sapiens, UniProt Q16584); conditions: 0.5 μM; Anastassiadis et al. 2011; cited from earlier work
MLK3, sequence (Q16584 whole entry, species assumed): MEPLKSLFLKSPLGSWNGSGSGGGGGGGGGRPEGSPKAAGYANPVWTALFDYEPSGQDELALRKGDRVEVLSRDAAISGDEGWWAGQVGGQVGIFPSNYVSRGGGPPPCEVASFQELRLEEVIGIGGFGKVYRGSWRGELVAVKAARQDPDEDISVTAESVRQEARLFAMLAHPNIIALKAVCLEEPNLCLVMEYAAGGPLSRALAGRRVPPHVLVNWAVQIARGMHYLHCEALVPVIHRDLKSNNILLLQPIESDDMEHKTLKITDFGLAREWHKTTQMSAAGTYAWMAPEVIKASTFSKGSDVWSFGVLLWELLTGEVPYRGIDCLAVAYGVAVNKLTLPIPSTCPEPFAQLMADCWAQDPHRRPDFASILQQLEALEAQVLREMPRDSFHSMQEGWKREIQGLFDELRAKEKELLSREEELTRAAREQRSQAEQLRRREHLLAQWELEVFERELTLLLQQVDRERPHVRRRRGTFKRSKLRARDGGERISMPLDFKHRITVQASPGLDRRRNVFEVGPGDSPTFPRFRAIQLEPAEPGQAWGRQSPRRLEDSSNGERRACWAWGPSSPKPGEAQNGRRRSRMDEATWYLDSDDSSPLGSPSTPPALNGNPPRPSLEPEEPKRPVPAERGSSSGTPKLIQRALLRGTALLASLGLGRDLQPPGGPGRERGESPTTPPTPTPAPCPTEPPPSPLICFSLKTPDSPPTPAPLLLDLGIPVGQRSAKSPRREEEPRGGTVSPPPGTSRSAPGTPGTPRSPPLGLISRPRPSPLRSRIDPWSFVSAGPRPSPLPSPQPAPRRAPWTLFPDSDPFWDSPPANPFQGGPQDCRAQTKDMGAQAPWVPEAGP

[7] = test system: HB9::GFP-SOD1^+/A4V human motor neurons; test: Rescue of CPA toxicity in human ESC-derived motor neurons, SOD1^+/A4V; format: cell-based; conditions: SOD1^A4V motor neurons, 33 μM CPA
From the text: as §1, §2

hSOD1^G93A mice = test: TUDCA on neuromuscular junction denervation of tibialis anterior; format: in vivo, mouse; conditions: 0.5 mg/g subcutaneously every three days, P30 to P50
From the text: To test the ability of TUDCA to preserve motor axons in ALS models in vivo, we designed a small-scale study in which we evaluated the denervation of the fast fatigable hind limb muscle tibialis anterior (TA) (FIG. 20D). […]. During this period, the TA muscles display 25-40% denervation before becoming substantially atrophied at later time points. […]. At the end of the experiment, we counted total NMJs by staining for acetylcholine receptors on the TA muscle with Alexa Fluor 488-conjugated α-bungarotoxin, and assessed their innervation by staining for motor axons with antibodies against vesicular acetylcholine […] (VAChT) (FIG. 20F). […].
(2) hSOD1^WT mice receiving 0.5 mg/g TUDCA in 0.01 M PBS subcutaneously to evaluate the mutation-specific effects of NMJ denervation and of the drug; […]. […] Because a lack of co-localization indicated muscle denervation, % NMJ innervation was determined by dividing the total number of areas of overlap between VAChT and BTX signals (total number innervated endplates) by the number of areas containing BTX signal (total number of endplates). One TA was assessed for each animal (n=4-6), with every third section throughout the whole muscle stained and counted such that a minimum of 1000 NMJs were evaluated per animal. Images were acquired using a Nikon Eclipse TE-2000-E fluorescence microscope with a 4× or 10× objective. […]

OCCN1CCN(Cc2ccc(-c3cnc4[nH]cc(-c5cccc(F)c5)c4c3)cc2)CC1 [Compound 12h, 2-(4-(4-(3-(3-Fluorophenyl)-1H-pyrrolo[2,3-b]pyridin-5-yl)benzyl)piperazin-1-yl)ethan-1-ol]
Kp at 30 min ([1]; 10 mg/kg): 2 | Kp at 30 min ([1]; 20 mg/kg): 3.3 | concentration at 30 min ([1]; 10 mg/kg, read-out: brain): < 500 ng/g and < 1.2 µM | concentration at 30 min ([1]; 10 mg/kg, read-out: plasma): < 250 ng/mL and < 580 nM | concentration at 30 min ([1]; 20 mg/kg, read-out: brain): 1670 ng/g and 3.88 µM | concentration at 30 min ([1]; 20 mg/kg, read-out: plasma): 505 ng/mL and 1.17 µM | pEC50 ([2]; read-out: EC50): 7.00 | Emax ([2]; read-out: Emax (MN survival % untreated)): 117% | oral bioavailability (from reduction of cjun phosphorylation after oral gavage) (phospho-cjun): orally bioavailable

Cc1nc(Nc2cnn(C3CCNCC3)c2)nc2c1N(C)C(=O)c1cc3ccccc3cc1N2C [HTH 01-015]
pIC50 (NUAK1): 7.00 | rescue of CPA toxicity [3]: unable to rescue CPA toxicity | concentration above which toxic to motor neurons in the absence of CPA [4]: above 2 μM | rescue of CPA toxicity (human ES motor neurons): failed to rescue CPA toxicity

O=C1Cc2c([nH]c3ccc(Br)cc23)-c2ccccc2N1 [Kenpaullone]
rescue of CPA-induced cell death [5]: 42% | solubility at the concentrations effective in in vitro CPA assays [6]: insoluble | MLK3 activity remaining (MLK3): 49.3% | rescue of CPA-induced cell death [7]: 31%

C[C@H](CCC(=O)NCCS(=O)(=O)O)[C@H]1CC[C@H]2[C@@H]3[C@@H](O)C[C@@H]4C[C@H](O)CC[C@]4(C)[C@H]3CC[C@]12C [TUDCA, tauroursodeoxycholic acid]
rescue of CPA-induced cell death [5]: 34% | rescue of CPA-induced cell death [7]: 9% | NMJ innervation vs untreated animals (hSOD1^G93A mice): moderate, but statistically significant increase in NMJ innervation
